Data as given in PubChem BioAssay (NCI).
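Where inhibition never reached the appropriate level, the endpoint shown equals the highest concentration tested. Otherwise, values were interpolated linearly from a five-concentration, 48-hour dose response in 96-well plates. Definition used: TGI = concentration required for complete inhibition of growth.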

Tests used:
[1] = test system: SNB-78 CNS; test: inhibition of tumour cell growth, NCI panel, 48 h
[2] = test system: HOP-18 NSCLC; test: inhibition of tumour cell growth, NCI panel, 48 h

Row | Structure (SMILES) | TGI [1] [µM] | TGI [2] [µM]
1 | O=C1C(Cl)=C(N2CCN(C3=C(Cl)C(=O)c4ccccc4C3=O)CC2)C(=O)c2ccccc21 | 1.56 | –
2 | c1ccc(C2C3=C(Nc4ncnn42)c2ccccc2C3)cc1 (centres undefined) | > 100 | > 100
3 | CCOC(=O)C1Cc2[nH]c3ccccc3c2C(C)C1C (centres undefined) | 62.4 | –
4 | Cn1cc2ccccc2c1-c1nc(N)nc(F)n1 | > 100 | –
5 | COc1ccc(C2Oc3c(cc(O)c(OC)c3C)[C@@H]2C)cc1OC (some centres undefined) | > 100 | > 100
6 | COc1ccc(C(C#N)NNC(=O)c2ccccc2O)cc1OC (centres undefined) | > 100 | > 100
7 | COc1cc(/C=C2/C(=O)N(C(=O)c3ccccc3O)N=C2C)cc(OC)c1OC | > 100 | –
8 | Cc1nc2c(nc1Cl)nc(Oc1ccc(Cl)cc1)c1ccccc12 | > 100 | –
9 | O=c1[nH]n2c(=O)cc[nH]c2c1-c1nnns1 | > 100 | –
10 | NC(N)=NS(=O)(=O)c1ccc(NCc2c3ccccc3[n+]([O-])c3ccccc23)cc1 | > 100 | 52.3
